# Columns and labels:
# [1] = test system: acetylated histones H3 and H4 in the TGF-β1 promoter; assay: Chromatin immunoprecipitation (ChIP) assay, TGF-β1 gene promoter; format: cell-based, human
# Text: The effect of HDAC inhibition on the acetylation of H3 or H4 associated with the TGF-β1 gene promoter was examined using the chromatin immunoprecipitation (ChIP) assay in an attempt to determine if HDIs induce accumulation of acetylated histones in chromatin associated with the TGF-β1 promoter in SLE PBMCs but not in healthy normal controls. The study undertaken included immunoprecipitating formaldehyde cross-linked, sonicated chromatin fragments from vehicle- and HDI-treated cells using anti-acetyl H3 and H4 antibodies, respectively. The immunoprecipitated DNA released from the bound protein was analyzed by quantitative PCR. A series of primer sets encompassing the TGF-β1 gene from −1.4 kbp to +0.6 kbp relative to the start site of transcription were created (FIG. 6A). Approximately a 12- and 4-fold enhancement of acetylated histones H3 and H4, respectively, in the TGF-β1 promoter in SLE was observed (FIGS. 6B & 6C).
# To determine whether this effect was selective for the TGF-β1 gene in SLE PBMCs, the level of histone acetylation in the glucose-6-phosphate dehydrogenase (G6PD) gene was also examined. As shown in FIGS. 6E & 6F, there was no change in the levels of acetylated histones H3 and H4 at the G6PD gene in SLE PBMCs.
# MRL/lpr mice = assay: In vivo TSA in 12 wk MRL/lpr mice (0.5 mg/kg sc, 4 weeks); parameters: species or system mouse
# Procedure: TSA was administered to MRL/lpr mice at 12 wks of age coinciding with the time of onset of clinical disease. TSA was given subcutaneously (sc) at a dose of 0.5 mg/kg dissolved in […]; control mice were given the vehicle alone (40 μl DMSO). Proteinuria was assessed as a measure of albumin in mg/mouse/day prior to the initial dose (at 12 wks of age) and after four wks of treatment (at 16 wks of age). […] After four weeks of treatment, nine mice in each group were sacrificed. At necropsy, the weight of the spleens were measured and sera was collected. […] IFN-γ was measured by ellispot assay in splenocytes isolated from vehicle or TSA treated mice.
# TSA was administered to MRL/lpr mice at 12 wks of age at the time of onset of clinical disease. TSA was given subcutaneously (sc) at a dose of 0.5 mg/kg dissolved in 40 μl DMSO; control mice were given the vehicle alone (40 μl DMSO). After four weeks of treatment, nine mice in each group were sacrificed. One-half of one kidney was fixed in 10% formaldehyde/PBS, embedded in paraffin, and stained with hematoxylin and eosin. An examiner blinded to the treatment group quantified disease activity as follows: (a) Glomeruli were graded for hypercellularity (0–4), crescent formation (0–4), and inflammation (0–4). (b) The interstitium was graded for inflammation (0–4). Scores were additive (BALB/c mice historically receive scores of 0–0.5). Half of the second kidney was snap-frozen, embedded in OCT, frozen sections cut and analyzed for C3 deposition by immunofluorescence.
# In determining whether TSA suppresses autoantibody production anti-dsDNA and anti GBM-auto-antibodies were measured.
# IL-10 protein = IL-10 protein production by SLE T cells (ELISA); format: cell-based, human
# Procedure: To determine whether TSA could down-regulate IL-10, a dose-response analysis was performed. […] However, when SLE T cells were cultured in the presence of TSA for 18 hr, no detectable IL-10 transcripts were identified (FIG. 2C, lanes 3, 6, 9). When IL-10 transcripts from all eight SLE subjects were quantified relative to GAPDH transcripts, TSA inhibited expression of IL-10 mRNA by 71% (FIG. 2D; P=0.029). […] IL-10 and IFN-γ protein production were quantified by ELISA (R & D Systems, Minneapolis, Minn.). […] Thus, like CD154, TSA was able to block expression of IL-10 transcript, abolishing IL-10 production by SLE T cells.
# iNOS mRNA = iNOS mRNA induction in MRL/lpr splenocytes; format: cell-based, mouse; details: splenocytes from 10 wk old mice, LPS and IFN-γ 24 hr
# Text: Excessive production of nitric oxide (NO) is crucial to the initiation and maintenance of glomerulonephritis in MRL/lpr mice. Pharmacologic inhibition of NO synthesis in MRL/lpr mice abrogates disease progression. In examining whether HDIs could suppress inducible nitric oxide synthetase (iNOS), splenocytes from 10 wk old mice were stimulated in the presence or absence of TSA or SAHA with LPS and IFN-γ for 24 hr. […] To determine whether HDIs could suppress nitric oxide secretion by mesangial cells, mesangial cells were stimulated with LPS ([…]) in the presence of vehicle or TSA for 24 hr. The supernatant from the cell culture was assayed for nitric oxide.
# [2] = test system: IL-12 p35 and p40 transcripts; assay: IL-12 p35 and p40 transcripts in MRL/lpr splenocytes; format: cell-based, mouse
# Procedure: In this study, the question of whether TSA down-regulates transcription of both IL-12 p35 and p40 subunit mRNA was investigated. […] Splenocytes were stimulated with LPS and IFN-γ for 6 or 18 hr. […] When splenocytes were preincubated with TSA or SAHA for 18 hr and then stimulated with LPS and IFN-γ IL-12 p35 and p40 transcripts were undetectable (FIGS. 9B–D).
# [3] = 0.5 mg/kg sc, 4 weeks treatment
smiles,measurement,setting,value
"CC(/C=C/C(=O)NO)=C\[C@@H](C)C(=O)c1ccc(N(C)C)cc1 [TSA, Trichostatin A]",acetylated state of G6PD gene,[1]; SLE PBMCs,does not change
same,enhancement of acetylated histone H3 in the TGF-β1 promoter,"[1]; SLE PBMCs, ChIP",~12 fold
same,enhancement of acetylated histone H4 in the TGF-β1 promoter,"[1]; SLE PBMCs, ChIP",~4 fold
same,enhancement of acetylated histones H3 and H4 at the TGF-β1 promoter,[1]; normal PBMCs treated with TSA,essentially no enhancement
same,proteinuria (albumin),"MRL/lpr mice; 0.5 mg/kg sc from 12 wks, after four wks, vs vehicle",prevented an increase in proteinuria
same,C3 deposition (kidney immunofluorescence),MRL/lpr mice; [3],did not show change
same,glomerulonephritis and renal score,MRL/lpr mice; [3],significant reduction
same,"number of IFN-γ secreting cells (ellispot, splenocytes)","MRL/lpr mice; 0.5 mg/kg sc, four weeks",significant decrement
same,spleen weight,"MRL/lpr mice; 0.5 mg/kg sc, four weeks, vs vehicle",significantly decreased in weight
same,overall health,"MRL/lpr mice; 0.5 mg/kg sc, vs vehicle",signs of better overall health
same,anti-dsDNA and anti GBM auto-antibodies,"MRL/lpr mice; TSA vs vehicle, 4 weeks treatment",no significant change
same,inhibition of IL-10 synthesis,"IL-10 protein; SLE T cells, at 24 hr",complete inhibition
same,inhibition of IL-10 production,"IL-10 protein; SLE T cells, within 6 hr",90%
same,TSA concentration of maximal inhibition of IL-10 protein production,"IL-10 protein; T cells from eight SLE subjects, 18 hr",300 ng/mL
same,iNOS mRNA induction,iNOS mRNA,able to suppress iNOS mRNA induction
same,LPS and IFN-γ induced IL-12 p35 and p40 transcripts,"[2]; splenocytes from 10-wk old MRL/lpr mice preincubated 18 hr, stimulated 6 or 18 hr",undetectable
same,TSA concentration that completely suppressed constitutive IL-12 p35 and p40 transcripts,[2]; splenocytes from 24-wk MRL/lpr mice,above 100 ng/ml

# Reference: US7271198B2, “Method of treating autoimmune diseases” (Wake Forest University, priority 2000, dated 2007)
